Paper PMC11500415, “Chemical inhibition of stomatal differentiation by perturbation of the master-regulatory bHLH heterodimer via an ACT-Like domain” (Nature Communications, 2024)
“And” between values parts separate entries of the source, which are not always exact repeats. Equal entries are not always repeated.

System: Arabidopsis stomatal development mutants (spch, mute, fama, er, erl1, erl2, hdg2, atml1, scrm, scrm2, scrm-D and suppressors)
Test: Stomatal development bioassay in mutant seedlings, liquid culture
Format: in vivo
Conditions: 50 μM; for meristemoids density: single seedlings n=8 (Fig. 3c)
Description: Arabidopsis accession Columbia (Col-0) was used as wild-type. […] Their genotype and transcript reduction were confirmed. The presence of transgenes/mutant alleles were confirmed by genotyping. For liquid culture with Stomidazolone (AYSJ929, compound 3), the analogs (AYSJ1059 (compound 5) and AYSJ1061 (compound 6)), degraded compound lzx103 (compound 4), and SIM3* (compound 7), all compounds were dissolved in dimethyl sulfoxide (DMSO, Molecular biology grade, Fujifilm Wako, Japan 046-21981), Col-0 seeds were sown in 96-well plates (TL5003; True Line) containing 95 μL of 1/2 MS media containing 0.5% sucrose with rotary shaking at 140 rpm under continuous light at 22 °C. Five μL of compounds were dissolved in DMSO at 10 mM and diluted with liquid 1/2 MS media to 1 mM and added on 1-day-old seedlings (final concentration, 50 μM). Seedlings were incubated for 8 days, and at day 9 seedling abaxial cotyledons were observed through confocal microscopy. For liquid culture of scrm-D_S343 and scrm-D_S423, 1/2 MS liquid media without sucrose was used. For the solid culture, 0, 20, 50 or 100 μM Stomidazolone were solidified with low-melting agarose (5805S, PrimeGelTM Agarose LMT 1-20 K, TAKARA Bio). Briefly, 1/2 MS salt, 0.5% sucrose, and 0.8% low melting agarose were mixed in water and autoclaved. After cooling the medium at around 30 °C, Stomidazolone (500x, dissolved in DMSO) was added and poured into 90 mm petri dishes (Asnol Petri Dish JP φ90 x 15 mm, 3-1491-01, AS ONE). Col-0 seeds were sown on Stomidazolone-containing 1/2 MS agarose media and grown under continuous light for 9 days.
For confocal microscopy, cell peripheries of seedlings were visualized with propidium iodide (Sigma, P4170). Images were acquired using LSM800 or LSM700 (Zeiss) using a 20x lens. The GFP, YFP reporter and PI signals were detected with excitation at 488 nm and an emission filter of 410 to 546 nm, at 488 nm and an emission filter of 410 to 546 nm, and with excitation at 561 nm and 582–617 nm emission range, respectively. Raw data were collected with 1024 × 1024 pixel images. For qualitative image presentation, Adobe Photoshop CC was used to trim and uniformly adjust the contrast/brightness.
For quantitative analysis of the abaxial leaf epidermis, confocal images were taken on the days after germination as indicated in the Figure legends. Preparation of images was done as described previously[32],[70]. For counting epidermal cell types, stomatal density, stomatal precursor cells (meristemoids), total stomata-lineage cells (stomata and meristemoids) were calculated by counting cell types in an area of 0.4 mm^2 (0.63 mm × 0.63 mm) and plotted as per mm^2. A series of Z-stack confocal images was obtained to obtain images covering the epidermis and capturing GFP/YFP signal from the reporter lines. The area and the number of epidermal cells were quantified by using FIJI-ImageJ. Statistical analyses were performed using R ver. 4.0.2. Sample sizes (n) are indicated and defined in each legend. For the multiple sample comparison, 1-way ANOVA was performed followed by a post hoc Tukey HSD test. For the two-sample comparison, Student’s T-test was performed. Graphs were generated using R ggplot2 package. For all boxplots, each box represents IQR (interquartile range), in which top, middle line, and bottom indicating 75, 50, and 25 percentiles, respectively, and the bar representing maximum to minimal values. Each magenta dot represents jittered individual data point. The datapoints that go beyond the bar are outliers, which are indicated as black dots. If the data point is greater than Q3 + 1.5*IQR (above the third quartile is greater than 1.5 times of the interquartile range) or less than Q1 − 1.5*IQR, that data point is classified as outlier. The color of Boxplot graph was based on ColorBrewer.org. The value of n, the number of each experiment or samples, the means of error bars, and how statistical significance was defined are indicated in a relevant figure legend. […]

[1] = er erl1, single seedlings n=8 (Fig. 4f)
[2] = scrm-D_S343, single seedlings n=8 (Fig. 5n)

SMILES: O=C1C(c2ccccc2)=NC(NS(=O)(=O)c2ccccc2)(c2ccccc2)N1S(=O)(=O)c1ccccc1 (stereo not shown) [Stomidazolone]
- effect on epidermal phenotype (in words) (er (er-105)): the number of stomata drastically decreased and the meristemoids vastly increased
- effect on epidermal phenotype (in words) (er erl1): did not reduce the number of stomata, although it increased the number of meristemoids
- Stomata density [1]: 204 per mm2 and 275 per mm2 and 292 per mm2
- Total (stomata+meristemoid) density [1]: 382 per mm2 and 272 per mm2 and 360 per mm2 and 323 per mm2 and 292 per mm2 and 347 per mm2 and 369 per mm2
- effect on epidermal phenotype (in words) (er erl1 erl2): insensitive
- Meristemoid density (er erl1 erl2, single seedlings n=8 (Fig. 4j, replotted 4k)): 0 per mm2
- effect on epidermal phenotype (in words) (er erl2): The number of arrested meristemoids is even more increased
- effect on epidermal phenotype (in words) (fama): significantly reduced the number of fama tumors whereas increasing the number of arrested meristemoids
- effect on epidermal phenotype (in words) (hdg2): increased the meristemoid numbers of hdg2 epidermis while the total numbers of stomata and meristemoids were unaffected
- Total (stomata+meristemoid) density (hdg2 (hdg2-2), single seedlings n=8 (Fig. 4m)): 149 per mm2 and 112 per mm2 and 171 per mm2 and 93 per mm2 and 137 per mm2 and 107 per mm2 and 141 per mm2
- effect on epidermal phenotype (in words) (hdg2 atml1): hypersensitivity
- Total (stomata+meristemoid) density (hdg2 atml1 (hdg2-2 atml1-3), single seedlings n=8 (Fig. 4o)): 92 per mm2 and 141 per mm2 and 156 per mm2 and 153 per mm2 and 112 per mm2 and 109 per mm2
- effect on epidermal phenotype (in words) (mute): not enhanced
- meristemoids density (mute (mute-1)): 296 per 1 mm2 and 243 per 1 mm2 and 204 per 1 mm2 and 289 per 1 mm2 and 350 per 1 mm2 and 267 per 1 mm2 and 187 per 1 mm2
- effect on epidermal phenotype (in words) (scrm2-1): reduction of the number of stomata with meristemoid arrests
- Stomatal index SI (%) (scrm2-1, single seedlings n=8 (Fig. 5f)): 25.2% and 23.5% and 22.4% and 18.0% and 27.0% and 24.1% and 26.7% and 15.5%
- effect on epidermal phenotype (in words) (scrm (ice1-2)): severely reduced stomatal lineage initiation
- effect on epidermal phenotype (in words) (scrm scrm2-1): no effects
- Stomatal index SI (%) (scrm scrm2-1, single seedlings n=7 (Fig. 5h)): 0%
- effect on epidermal phenotype (in words) (scrm-D): not affected
- Stomatal index SI (%) (scrm-D, single seedlings n=8 (Fig. 5j)): 100.0% and 99.0% and 98.0%
- SI (%) [2]: 10.3% and 14.9% and 8.1% and 11.9% and 12.8% and 12.5% and 9.6% and 12.1%
- small cells index (%) [2]: 31.8% and 53.1% and 60.4% and 54.1% and 50.8% and 47.7% and 36.1%
- effect on epidermal phenotype (in words) (scrm-D_S343 and scrm-D_S423): triggered excessive formation of arrested meristemoids
- effect on epidermal phenotype (in words) (scrm-D_S343 scrm2-1 and scrm-D_S423 scrm2-1): insensitivity
- SI (%) (scrm-D_S423, single seedlings n=8 (Fig. 5p)): 0.7% and 1.2% and 0.0% and 1.4% and 3.0%
- effect on epidermal phenotype (in words) (spch): no effects
- meristemoids density (spch (spch-3)): 0 per 1 mm2
